Measurements reported in article PMC10590756, “Glutarate regulates T cell metabolism and anti-tumour immunity” (Nature Metabolism, 2023).

What was measured:
[1] = system: primary murine CD8^+ T cells; assay: Screen of T cell differentiation: CD62L/CD44 populations by flow cytometry; format: cell-based, mouse
Source text: We first sought to investigate if compounds structurally related to 2HG could increase the TCM population of CD8^+ T cells. To carry out this analysis, we identified 19 structural analogues of 2HG; eight were commercially available and 11 were synthesized de novo for the purposes of this study (Table 1). We used esterified versions of most of the compounds used, so as to increase both potency and intracellular translocation. The octyl ester form of S-2HG was used as a positive control in these assays. We screened the compounds for effects on T cell differentiation at 400-µM levels (using the efficacy of S-2HG in CD8^+ T cells as a guide[11]) in culture media during the process of activation of isolated primary murine CD8^+ T cells.
After 7 days of culture, we assessed the abundance of CD62L^hiCD44^hi (TCM-like) T cells by flow cytometry (Fig. 1a). We additionally determined the effect of each compound on cell growth and viability (Fig. 1b and Extended Data Fig. 1a).
Mouse CD8^+ T cells were isolated from mouse spleens using positive selection. Incubation with microbeads conjugated to monoclonal anti-mouse CD8α (Ly-2; isotype: rat IgG2a) antibody (catalogue no. 130-049-401, Miltenyi Biotec) was followed by magnetic bead isolation on a MACS column. WT mouse CD8^+ T cells were activated with anti-mouse CD3/CD28 Dynabeads (catalogue no. 11453D, Thermo Fisher Scientific) at a 1:1 cell:bead ratio. Purified OT1 CD8^+ T cells were activated with 1 µg ml^−1 of the OVA-derived peptide SIINFEKL (ProImmune). All mouse CD8^+ T cells were cultured in complete RPMI 1640 supplemented with 10% FCS, 100 U ml^−1 penicillin, 100 µg ml^−1 streptomycin, 55 µM 2-ME (catalogue no. 21985023, Gibco) and 10 U ml^−1 IL-2.
Single-cell suspensions were stained with LIVE/DEAD Fixable Near-IR Dead Cell Stain Kit (catalogue no. 10119, Thermo Fisher Scientific) followed by surface and intracellular staining with fluorochrome-labelled antibodies (Supplementary Tables 1 and 2). […]

[2] = system: B16F10-OVA melanoma tumours; assay: B16F10-OVA tumour growth and infiltration model; format: in vivo, C57BL/6J mice
Protocol: Seven to 10-week-old male C57BL/6J mice were inoculated subcutaneously with 1.0 × 10^6 B16F10-OVA. Animals were assigned randomly to each experimental group. Four days after inoculation, mice were treated with a peritoneal injection of 0.2 mg DEG (approximately 10 mg kg^−1). Treatment was repeated every 2–3 days until day 28. Tumour volume was measured every 2–3 days with electronic callipers until day 30. Peripheral blood was collected from the tail vein at day 7 and 14 days after tumour inoculation and analysed using flow cytometry. On day 14, tumours were dissected and dissociated using the Tumor Dissociation Kit (catalogue no. 130-095-929, Miltenyi Biotec), according to the manufacturer’s instructions. Spleen and the tumour-draining lymph node were mashed in cell strainers. The tumour, spleen and draining lymph node single-cell suspensions were stained with fluorochrome-labelled antibodies and analysed using flow cytometry. The tumour experiments using C57BL/6J mice were carried out in accordance with the ethical regulations of the UK Home Office and the maximal tumour burden of […] was not exceeded (mice were euthanized when tumour volume exceeded […]).

human full-length KDM6A = molecular target: T1, human full-length KDM6A (Homo sapiens, UniProt O15550); assay: Cell-free KDM6A activity assay (^14CO2 release); format: biochemical
T1 construct: The human full-length HIF-P4H-1 and KDM6A enzymes were recombinantly produced using Sf21 insect cells; made in house; host or cells: Sf21 insect cells (baculovirus, pVL1393)
T1 sequence (O15550 whole entry): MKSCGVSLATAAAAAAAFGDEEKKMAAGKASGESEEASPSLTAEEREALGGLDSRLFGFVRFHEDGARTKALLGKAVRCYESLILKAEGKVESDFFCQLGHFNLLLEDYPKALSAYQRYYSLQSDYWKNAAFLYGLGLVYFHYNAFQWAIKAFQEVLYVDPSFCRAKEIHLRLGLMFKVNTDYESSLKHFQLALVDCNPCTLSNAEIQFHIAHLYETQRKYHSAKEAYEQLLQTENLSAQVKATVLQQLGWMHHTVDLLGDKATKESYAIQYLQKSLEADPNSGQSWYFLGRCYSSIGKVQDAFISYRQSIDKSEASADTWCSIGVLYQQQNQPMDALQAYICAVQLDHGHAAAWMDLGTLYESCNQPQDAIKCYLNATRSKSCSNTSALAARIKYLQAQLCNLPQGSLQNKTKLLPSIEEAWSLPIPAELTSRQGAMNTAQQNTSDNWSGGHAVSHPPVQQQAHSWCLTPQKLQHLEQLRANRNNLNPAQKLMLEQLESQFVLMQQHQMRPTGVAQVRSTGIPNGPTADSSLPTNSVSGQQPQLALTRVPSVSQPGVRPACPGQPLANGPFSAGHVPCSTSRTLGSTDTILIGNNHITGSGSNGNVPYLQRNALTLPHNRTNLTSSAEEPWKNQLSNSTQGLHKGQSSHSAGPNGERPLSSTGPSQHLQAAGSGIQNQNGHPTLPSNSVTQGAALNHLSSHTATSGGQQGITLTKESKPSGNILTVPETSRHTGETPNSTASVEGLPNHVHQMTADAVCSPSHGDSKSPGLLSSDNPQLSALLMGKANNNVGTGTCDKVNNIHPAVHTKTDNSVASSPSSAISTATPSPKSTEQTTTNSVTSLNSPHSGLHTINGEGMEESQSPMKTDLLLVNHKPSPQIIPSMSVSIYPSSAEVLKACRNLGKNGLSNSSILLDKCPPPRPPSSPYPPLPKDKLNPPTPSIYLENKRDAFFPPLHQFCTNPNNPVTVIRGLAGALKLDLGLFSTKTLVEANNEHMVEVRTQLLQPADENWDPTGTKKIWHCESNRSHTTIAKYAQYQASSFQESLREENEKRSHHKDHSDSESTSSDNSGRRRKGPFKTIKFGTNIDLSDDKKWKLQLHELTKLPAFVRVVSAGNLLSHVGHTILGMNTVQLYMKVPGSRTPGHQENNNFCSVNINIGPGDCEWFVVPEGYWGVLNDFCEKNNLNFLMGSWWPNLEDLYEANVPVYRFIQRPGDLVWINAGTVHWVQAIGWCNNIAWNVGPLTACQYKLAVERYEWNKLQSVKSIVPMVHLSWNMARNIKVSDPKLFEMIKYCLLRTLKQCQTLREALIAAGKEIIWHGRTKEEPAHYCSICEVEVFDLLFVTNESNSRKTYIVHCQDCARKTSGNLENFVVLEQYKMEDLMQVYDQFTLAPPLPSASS
Source text: The human full-length HIF-P4H-1 and KDM6A enzymes were recombinantly produced using Sf21 insect cells and the enzymes were purified with anti-FLAG M2 affinity gel as described previously[68],[69]. Briefly, the C terminus FLAG-tagged human HIF-P4H1-2 and KDM6A were generated using PCR and subcloned into pAcG3X and pVL1393 baculovirus expression vectors, respectively. The recombinant baculoviruses were generated by transducing the bacmid DNA into Spodoptera frugiperda Sf9 cells using BaculoGold DNA (HIF-P4H1-2, BD Biosciences) and BacMagic-3 DNA kit (for KDM6A, Novagen). Recombinant proteins were produced by infecting Sf21 insect cells with the corresponding amplified baculoviruses for 72 h at 27 °C. Cells were homogenized in a buffer containing 10 mM Tris, 150 mM NaCl, 100 mM glycine, 0.1% (v/v) Triton X-100, pH 7.8, and a protease inhibitor cocktail tablet without EDTA. The cell lysates were centrifuged at 21,000g for 30 min; the soluble fractions containing the FLAG-tagged proteins were affinity-purified using the anti-FLAG M2 affinity gel (Sigma-Aldrich). […] Protein concentration was measured with NanoDrop and proteins were analysed by SDS–PAGE followed by Coomassie brilliant blue staining. […] The IC50 value of the glutarate analogue was calculated from the inhibition saturation curves.

[3] = 14 days after tumour inoculation, relative to controls

With `CCOC(=O)CCCC(=O)OCC` [DEG, Diethyl glutarate] as the molecule, how does the “abundance of CD62L^hiCD44^hi (TCM-like) CD8^+ T cells” value ([1]; 400 µM test compound, 7 days of culture) read?
The value was “significantly increased”.

And the “effector memory T (TEM) cell population (CD62L^loCD44^hi)” value ([1]; 7 days of culture with DEG)?
The value was “decreased”.

And the “CD62L^hiCD44^hi TCM population” value ([1]; increasing concentrations of DEG, 7 days)?
The value was “increased the CD62L^hiCD44^hi TCM population in a dose-dependent manner”.

And the survival ([2]; 10 mg kg^−1 DEG intraperitoneally every 48–72 h, 1,000 mm^3 tumour volume as threshold)?
The survival was “significantly increased survival”.

And the tumour growth ([2]; 10 mg kg^−1 DEG intraperitoneally every 48–72 h from day 4)?
Its tumour growth is “significantly slowed tumour growth”.

What about the “peripheral blood CD8^+ T cells” value [2, 3] of the same molecule?
The value was “significant increase”.

And the “tumour-infiltrating CD8^+ T cells” value [2, 3]?
The value was “significant increase”.

And the other immune populations ([2]; blood, tumour, spleen, tumour-draining lymph node, day 14)?
The other immune populations was “No changes”.

And the “circulating B cells” value ([2]; day 14)?
The value was “slight decrease”.

And the “exhaustion-associated markers (TIM3, PD1, LAG3, TOX) in tumour-infiltrating CD4^+ or CD8^+ cells” value ([2]; day 14)?
Its value is “no changes”.

And the “memory-associated markers (CD62L and CD44) in tumour-infiltrating CD4^+ or CD8^+ cells” value ([2]; day 14)?
The value was “no changes”.

`O=C(O)CCCC(=O)O` [glutarate, glutaric acid] was tested. Which IC50 (human full-length KDM6A) did it give?
Its IC50 is 600 µM.
